{"source": "patent US8354566B2", "about": "“Lubricating oil additive and lubricating oil composition containing same” (Chevron Oronite Company LLC, priority 2010, dated 2013)", "origin": "cited, not measured here", "test_system": "estrogen-inducible strain of yeast", "conditions": "compared among alkylphenols and with 17β-estradiol"}
{"smiles": "CC(C)(C)CC(C)(C)c1ccc(O)cc1", "note": "[4-tert-octylphenol, 4-(1,1,3,3-Tetramethyl-butyl)-phenol]", "values": [{"measurement": "estrogenic activity", "value": "highest activity"}]}
